pIC50: −log10 of the molar value.
Target: T1, KDM5B (Homo sapiens, UniProt Q9UGL1)
T1 construct: (a.a. 1-752); host or cells: U2OS
T1 sequence (Q9UGL1 1-752): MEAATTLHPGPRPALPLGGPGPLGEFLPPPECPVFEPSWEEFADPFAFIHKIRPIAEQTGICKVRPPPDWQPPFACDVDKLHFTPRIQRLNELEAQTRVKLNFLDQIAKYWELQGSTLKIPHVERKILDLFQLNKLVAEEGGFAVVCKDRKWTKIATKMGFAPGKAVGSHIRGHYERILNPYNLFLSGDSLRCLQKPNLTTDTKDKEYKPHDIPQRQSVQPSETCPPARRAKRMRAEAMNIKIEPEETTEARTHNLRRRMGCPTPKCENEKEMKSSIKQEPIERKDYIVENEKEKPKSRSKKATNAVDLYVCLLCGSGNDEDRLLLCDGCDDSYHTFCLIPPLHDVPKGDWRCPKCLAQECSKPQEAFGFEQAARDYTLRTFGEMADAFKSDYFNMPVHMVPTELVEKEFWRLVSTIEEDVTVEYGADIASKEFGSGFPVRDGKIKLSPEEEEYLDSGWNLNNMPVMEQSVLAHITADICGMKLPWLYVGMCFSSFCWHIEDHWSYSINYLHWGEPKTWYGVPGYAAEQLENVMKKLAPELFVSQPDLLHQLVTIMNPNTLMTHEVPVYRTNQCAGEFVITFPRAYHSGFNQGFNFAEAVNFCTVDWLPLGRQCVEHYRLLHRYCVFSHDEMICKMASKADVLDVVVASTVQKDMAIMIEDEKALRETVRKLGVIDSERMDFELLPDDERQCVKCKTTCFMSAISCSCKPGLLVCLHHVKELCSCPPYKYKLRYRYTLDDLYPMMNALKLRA
Experiment: Histone lysine demethylase immunofluorescence assay, U2OS cells transfected with KDM5B
Type: cell-based
Conditions: U2OS cells transfected with pCMVHA KDM5B; mark detected H3K4me2; 20 hours
Protocol: U2OS cells were seeded 24 hours before transfection. Transfection was performed with Fugene HD transfection reagent as recommended by the manufacturer. 6 hours after transfection, the cells were harvested and seeded into multi well plates into media containing compound. The media used was DMEM containing 10% FBS and pen/strep. 20 hours after incubation of cells with compounds, the cells were washed in PBS, harvested by fixation with formaldehyde 4% aqueous solution, and washed in PBS. Subsequently, the cells were permeabilized in PBS with 0.2% Triton X-100 for. Blocking was performed in PBS with 0.2% Triton X-100 and 5% FBS. The cells were incubated with primary antibodies in blocking solution over night at 4° C. The primary antibodies used in the assays were HA.11 (Covance, MMS-101P) and the antibody detecting the mark specified in the table below. After incubation with primary antibodies, the cells were washed with PBS, incubated with secondary antibodies (Alexa fluor 594 goat anti rabbit IgG, Invitrogen, A11012; Alexa flour 488 donkey anti mouse IgG, Invitrogen, A21202) and Hoechst, (Sigma, 33342) in blocking solution, and washed again with PBS. Finally, PBS was added and high throughput imaging and analysis were performed by an IN Cell Analyzer 1000 (GE Healthcare). The robot software analyzed individual cells and divided these into HA+ (transfected cells) and HA− (non-transfected cells). The IC50 values were based on an average measure of the staining of the mark specified in the table below in the transfected cells.

Compound | pIC50
CN(C)CCCCNCc1cc(CNC2CC2)ccn1 [Compound 10, N-{[2-({[4-(dimethylamino)butyl]-amino}methyl)pyridin-4-yl]methyl}-cyclopropanamine] | < 5.60
CC1CCCCN1CCCNCc1cc(CNC2CC2)ccn1 (stereo not shown) [Compound 11, N-{[2-({[3-(2-methylpiperidin-1-yl)propyl]amino}methyl)-pyridin-4-yl]methyl}-cyclopropanamine] | < 5.60
CCCNCc1cc(CNC2CC2)ccn1 [Compound 12, N-({2-[(propylamino)methyl]-pyridin-4-yl}methyl)-cyclopropanamine] | < 5.60
CN(C)C(=O)CNCc1cc(CNCCF)ccn1 [Compound 14, 2-{[(4-{[(2-fluoroethyl)amino]-methyl}pyridin-2-yl)methyl]amino}-N,N-dimethylacetamide] | < 5.60
CN(C)CCNCc1ccnc(CNCC(=O)N(C)C)c1 [Compound 15, 2-({[4-({[2-(dimethylamino)ethyl]-amino}methyl)pyridin-2-yl]methyl}amino)-N,N-dimethylacetamide] | 5.60 to 6.60
c1ccc(CN2CCC[C@H]2CNCc2cc(CNCC3CC3)ccn2)cc1 [Compound 16, {[(2S)-1-benzylpyrrolidin-2-yl]methyl}[(4-{[(cyclopropylmethyl)-amino]methyl}pyridin-2-yl)methyl]amine] | < 5.60
CNCc1ccnc(CNCCCN(C)Cc2ccccc2)c1 [Compound 17, benzyl(methyl){3-[({4-[(methylamino)methyl]-pyridin-2-yl)methyl)-amino]propyl}-amine] | < 5.60
CN(C)CCNCc1cc(CNC(C#N)C2CC2)ccn1 (stereo not shown) [Compound 21, 2-cyclopropyl-2-({[2-({[2-(dimethylamino)ethyl]-amino}methyl)pyridin-4-yl]methyl}amino)-acetonitrile] | 5.60 to 6.60
CC1CC1/N=C/c1ccnc(CNCC(=O)N(C)C)c1 (stereo not shown) [Compound 35, N,N-dimethyl-2-[({4-[N-(2-methylcyclopropyl)-carboximidoyl]pyridin-2-yl}methyl)amino]-acetamide] | 5.60 to 6.60
CCSCCNCc1cc(/C=N/C2CC2)ccn1 [Compound 39, N-{[2-({[2-(ethylsulfanyl)-ethyl]amino}methyl)pyridin-4-yl]methylidene}-cyclopropanamine] | < 5.60
CN(CCCNCc1cc(/C=N/C2CC2)ccn1)Cc1ccccc1 [Compound 41, N-({2-[({3-[benzyl(methyl)amino]-propyl}amino)methyl]-pyridin-4-yl}methylidene)-cyclopropanamine] | 5.60 to 6.60
CN(C)CCCCNCc1cc(/C=N\C2CC2)ccn1 [Compound 45, N-{[2-({[4-(dimethylamino)butyl]-amino}methyl)-pyridin-4-yl]methylidene}-cyclopropanamine] | > 6.60
CN(C)CCCCCNCc1cc(/C=N/C2CC2)ccn1 [Compound 47, N-{[2-({[5-(dimethylamino)-pentyl]amino}-methyl)pyridin-4-yl]methylidene}-cyclopropanamine] | > 6.60
CCN(CC)CCCCNC(=O)CNCc1cc(/C=N/C2CC2)ccn1 [Compound 48, 2-[({4-[N-cyclopropyl-carboximidoyl]pyridin-2-yl}methyl)amino]-N-[4-(diethylamino)-butyl]acetamide] | < 5.60
O=C(CNCc1cc(/C=N/C2CC2)ccn1)N1CCC[C@@H]1CN1CCCC1 [Compound 49, 2-[({4-[N-cyclopropyl-carboximidoyl]pyridin-2-yl}methyl)amino]-1-[(2R)-2-(pyrrolidin-1-ylmethyl)pyrrolidin-1-yl]ethan-1-one] | > 6.60
CCN(CCC#N)C(=O)CNCc1cc(/C=N/C2CC2)ccn1 [Compound 50, N-(2-cyanoethyl)-2-[({4-[N-cyclopropyl-carboximidoyl]-pyridin-2-yl}methyl)amino]-N-ethylacetamide] | 5.60 to 6.60

Compound | pIC50
CCN1CCCC1CNC(=O)CNCc1cc(/C=N/C2CC2)ccn1 (stereo not shown) [Compound 51, 2-[({4-[N-cyclopropyl-carboximidoyl]-pyridin-2-yl}methyl)-amino]-N-[(1-ethylpyrrolidin-2-yl)methyl]acetamide] | 5.60 to 6.60
CN(CCCn1cccn1)C(=O)CNCc1cc(/C=N/C2CC2)ccn1 [Compound 52, 2-[({4-[N-cyclopropyl-carboximidoyl]-pyridin-2-yl}methyl)amino]-N-methyl-N-[3-(1H-pyrazol-1-yl)propyl]acetamide] | 5.60 to 6.60
O=C(CNCc1cc(/C=N/C2CC2)ccn1)NC1CCN(Cc2ccccc2)C1 (stereo not shown) [Compound 53, N-(1-benzylpyrrolidin-3-yl)-2-[({4-[N-cyclopropyl-carboximidoyl]pyridin-2-yl}methyl)amino]-acetamide] | 5.60 to 6.60
CN1CCN(C(=O)CNCc2cc(/C=N/C3CC3)ccn2)CC1 [Compound 54, 2-[({4-[N-cyclopropyl-carboximidoyl]-pyridin-2-yl}methyl)amino]-1-(4-methylpiperazin-1-yl)ethan-1-one] | 5.60 to 6.60
O=C(CNCc1cc(/C=N/C2CC2)ccn1)N1CCC(Cc2ccccc2)CC1 [Compound 55, 1-(4-benzylpiperidin-1-yl)-2-[({4-[N-cyclopropyl-carboximidoyl]-pyridin-2-yl}methyl)amino]-ethan-1-one] | < 5.60
C#CCN(C)C(=O)CNCc1cc(/C=N/C2CC2)ccn1 [Compound 56, 2-[({4-[N-cyclopropyl-carboximidoyl]-pyridin-2-yl}methyl)amino]-N-methyl-N-(prop-2-yn-1-yl)acetamide] | < 5.60
CN1CCN(C(=O)CNCc2cc(C=O)ccn2)CC1 [Compound 103, 2-({[2-(4-methylpiperazin-1-yl)-2-oxoethyl]-amino}methyl)-pyridine-4-carbaldehyde] | 5.60 to 6.60
CCN1CCCC1CNC(=O)CNCc1cc(C=O)ccn1 (stereo not shown) [Compound 104, N-[(1-ethylpyrrolidin-2-yl)methyl]-2-{[(4-formylpyridin-2-yl)methyl]amino}-acetamide] | 5.60 to 6.60
CCN(CC)C(=O)CNCc1cc(C=O)ccn1 [Compound 105, N,N-diethyl-2-{[(4-formylpyridin-2-yl)methyl]amino}-acetamide] | 5.60 to 6.60
O=Cc1ccnc(CNCC(=O)N2CCC(Cc3ccccc3)CC2)c1 [Compound 106, 2-({[2-(4-benzylpiperidin-1-yl)-2-oxoethyl]-amino}methyl)-pyridine-4-carbaldehyde] | < 5.60
CN(C)CCCCNCc1cc(C=O)ccn1 [Compound 108, 2-({[4-(dimethylamino)-butyl]amino}methyl)-pyridine-4-carbaldehyde] | > 6.60
CN(C)CCNCc1cc(C=O)ccn1 [Compound 110, 2-({[2-(dimethylamino)-ethyl]amino}methyl)-pyridine-4-carbaldehyde] | 5.60 to 6.60
CCN(CC)CCCCNC(=O)CNCc1cc(C=O)ccn1 [Compound 112, N-[4-(diethylamino)-butyl]-2-{[(4-formylpyridin-2-yl)methyl]amino}-acetamide] | < 5.60
CN(C)CCCCCNCc1cc(C=O)ccn1 [Compound 114, 2-({[5-(dimethylamino)-pentyl]amino}methyl)-pyridine-4-carbaldehyde] | > 6.60
CN(CC(=O)N1CCCCC1)Cc1cc(C=O)ccn1 [Compound 120, 2-({methyl[2-oxo-2-(piperidin-1-yl)ethyl]amino}-methyl)pyridine-4-carbaldehyde] | < 5.60
